{"source": "ChEMBL document CHEMBL1681702", "about": "“Biological activity and ligand binding mode to the progesterone receptor of A-homo analogues of progesterone” (Bioorg Med Chem, 2011)", "key": {"[1]": {"molecular_target": "T1, Progesterone receptor (Homo sapiens) (UniProt P06401)", "T1 sequence (whole entry)": "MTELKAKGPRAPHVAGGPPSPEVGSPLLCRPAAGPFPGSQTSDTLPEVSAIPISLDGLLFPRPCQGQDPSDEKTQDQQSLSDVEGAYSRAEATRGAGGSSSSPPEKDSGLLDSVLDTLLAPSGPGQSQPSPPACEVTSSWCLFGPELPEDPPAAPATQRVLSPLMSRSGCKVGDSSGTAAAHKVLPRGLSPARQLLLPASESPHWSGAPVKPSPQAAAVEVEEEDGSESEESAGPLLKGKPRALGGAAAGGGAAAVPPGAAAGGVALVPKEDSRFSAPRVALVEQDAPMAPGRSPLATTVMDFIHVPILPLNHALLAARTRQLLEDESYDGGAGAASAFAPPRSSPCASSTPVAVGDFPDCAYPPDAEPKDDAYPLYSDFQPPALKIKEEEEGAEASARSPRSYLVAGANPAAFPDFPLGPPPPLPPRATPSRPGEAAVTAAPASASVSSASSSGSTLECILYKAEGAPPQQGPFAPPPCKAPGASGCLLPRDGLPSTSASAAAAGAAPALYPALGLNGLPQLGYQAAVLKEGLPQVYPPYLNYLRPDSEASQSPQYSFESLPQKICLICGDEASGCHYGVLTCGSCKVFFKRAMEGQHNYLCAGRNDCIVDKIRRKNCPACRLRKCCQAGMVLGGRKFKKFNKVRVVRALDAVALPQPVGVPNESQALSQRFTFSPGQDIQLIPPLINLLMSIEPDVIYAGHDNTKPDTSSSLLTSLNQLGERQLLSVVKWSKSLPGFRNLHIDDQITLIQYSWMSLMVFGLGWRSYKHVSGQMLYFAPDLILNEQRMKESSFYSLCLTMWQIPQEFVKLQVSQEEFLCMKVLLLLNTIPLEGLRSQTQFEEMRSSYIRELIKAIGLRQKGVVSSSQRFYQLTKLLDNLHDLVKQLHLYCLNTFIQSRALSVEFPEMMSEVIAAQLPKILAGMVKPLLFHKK", "assay": "Transactivation activity at human progesterone receptor isoform B expressed in human Cos1 cells co-transfected with luciferase reporter gene linked to MMTV promoter at 10^-7 M after 24 hrs", "format": "cell-based"}, "[2]": {"molecular_target": "T1, Progesterone receptor (Homo sapiens)", "assay": "Agonist activity at human progesterone receptor in human T47D cells assessed as induction of Bcl-xL gene expression at 10^-6 M after 6 hrs by quantitative PCR", "format": "functional, cell-based"}, "[3]": {"molecular_target": "T2, Mineralocorticoid receptor (Homo sapiens) (UniProt P08235)", "T2 sequence (whole entry)": "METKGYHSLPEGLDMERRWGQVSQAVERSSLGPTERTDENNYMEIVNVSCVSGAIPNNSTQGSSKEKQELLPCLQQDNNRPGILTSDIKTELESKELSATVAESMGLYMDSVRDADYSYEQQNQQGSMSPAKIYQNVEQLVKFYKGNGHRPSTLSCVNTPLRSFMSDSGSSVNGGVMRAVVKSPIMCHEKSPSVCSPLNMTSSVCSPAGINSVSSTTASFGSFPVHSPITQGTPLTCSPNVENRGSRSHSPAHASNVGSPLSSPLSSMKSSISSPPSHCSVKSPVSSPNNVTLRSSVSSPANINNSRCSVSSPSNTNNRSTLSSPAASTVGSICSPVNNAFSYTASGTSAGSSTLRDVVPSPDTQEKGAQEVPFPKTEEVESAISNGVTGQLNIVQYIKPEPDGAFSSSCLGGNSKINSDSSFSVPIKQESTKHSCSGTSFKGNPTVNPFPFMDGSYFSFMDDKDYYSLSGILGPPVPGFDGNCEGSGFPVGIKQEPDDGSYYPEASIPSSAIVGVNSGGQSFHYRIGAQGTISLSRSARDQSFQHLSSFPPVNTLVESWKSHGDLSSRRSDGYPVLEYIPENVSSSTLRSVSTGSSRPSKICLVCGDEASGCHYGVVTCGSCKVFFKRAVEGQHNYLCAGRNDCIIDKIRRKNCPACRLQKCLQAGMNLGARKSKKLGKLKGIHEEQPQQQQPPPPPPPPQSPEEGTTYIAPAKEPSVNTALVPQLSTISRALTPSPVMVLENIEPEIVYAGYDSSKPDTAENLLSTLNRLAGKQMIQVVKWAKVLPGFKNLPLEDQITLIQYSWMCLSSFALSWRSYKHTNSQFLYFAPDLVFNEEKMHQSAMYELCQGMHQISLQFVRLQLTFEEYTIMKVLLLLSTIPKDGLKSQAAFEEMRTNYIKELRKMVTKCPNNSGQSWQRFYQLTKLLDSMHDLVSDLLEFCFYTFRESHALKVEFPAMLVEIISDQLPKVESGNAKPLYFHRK", "assay": "Transactivation activity at human MR expressed in human Cos1 cells co-transfected with luciferase reporter gene linked to MMTV promoter and pCMV-LacZ vector at 10^-5 M after 24 hrs", "format": "cell-based"}, "[4]": {"molecular_target": "T1, Progesterone receptor (Homo sapiens)", "assay": "Transactivation activity at human progesterone receptor isoform B expressed in human Cos1 cells co-transfected with luciferase reporter gene linked to MMTV promoter at 10^-6 M after 24 hrs", "format": "cell-based"}, "[5]": {"molecular_target": "T2, Mineralocorticoid receptor (Homo sapiens)", "assay": "Antagonist activity at human MR expressed in human Cos1 cells co-transfected with luciferase reporter gene linked to MMTV promoter and pCMV-LacZ vector assessed as effect on aldosterone-induced activity at 10^-5 M after 24 hrs", "format": "functional, cell-based"}}, "note": "Calls of active or inactive are those of the source. No cut-off for these calls is given here."}
{"compound": "CC(=O)[C@H]1CC[C@H]2[C@@H]3CC=C4CC(=O)CCC[C@]4(C)[C@H]3CC[C@]12C", "values": [{"measurement": "Activity", "setting": "[1]", "result": "Active"}, {"measurement": "Activity", "setting": "[2]", "result": "Active"}, {"measurement": "Activity", "setting": "[3]", "result": "inactive"}, {"measurement": "Activity", "setting": "[4]", "result": "Active"}, {"measurement": "Activity", "setting": "[5]", "result": "inactive"}]}
{"compound": "CC(=O)[C@H]1CC[C@H]2[C@@H]3CC=C4CCC(=O)CC[C@]4(C)[C@H]3CC[C@]12C", "values": [{"measurement": "Activity", "setting": "[1]", "result": "Active"}, {"measurement": "Activity", "setting": "[2]", "result": "Active"}, {"measurement": "Activity", "setting": "[3]", "result": "inactive"}, {"measurement": "Activity", "setting": "[4]", "result": "Active"}, {"measurement": "Activity", "setting": "[5]", "result": "inactive"}]}
